Laboratory results: patent publication US10232020B2, “Incretin-insulin conjugates” (priority 2014, dated 2019)
Starred links: 1 amine or outer side, 2 acyl side, 3 side chain; linkers in the order of their positions; H or OH if unused. Non-standard residues stand in square brackets, D forms with d. Groups on a side chain read outwards from the residue. No end group written: not given here. *: point of attachment. γGlu = O=C(O)[C@H](CCC(=O)[*:2])N[*:1]; Palmitoyl = CCCCCCCCCCCCCCCC(=O)*; Aib = CC(C)(N)C(=O)O

Key:
physchem = assay: physchem
Description: The rate of cleavage was determined for the respective propeptides. The concentrations of the propeptides and the model parent peptide were determined by their respective peak areas. […] The slope of this plot provides the rate constant ‘k’.

GIP receptor [1] = target: T1, GIP receptor (Homo sapiens, UniProt P48546); assay: cAMP synthesis luciferase reporter assay in HEK293 cells, GIP receptor; format: cell-based; conditions: read-out: Normalized GIP EC50 (nM) MEAN; Table 4
T1 construct: expressed in transfected cells; host or cells: HEK293
T1 sequence (P48546 22-466): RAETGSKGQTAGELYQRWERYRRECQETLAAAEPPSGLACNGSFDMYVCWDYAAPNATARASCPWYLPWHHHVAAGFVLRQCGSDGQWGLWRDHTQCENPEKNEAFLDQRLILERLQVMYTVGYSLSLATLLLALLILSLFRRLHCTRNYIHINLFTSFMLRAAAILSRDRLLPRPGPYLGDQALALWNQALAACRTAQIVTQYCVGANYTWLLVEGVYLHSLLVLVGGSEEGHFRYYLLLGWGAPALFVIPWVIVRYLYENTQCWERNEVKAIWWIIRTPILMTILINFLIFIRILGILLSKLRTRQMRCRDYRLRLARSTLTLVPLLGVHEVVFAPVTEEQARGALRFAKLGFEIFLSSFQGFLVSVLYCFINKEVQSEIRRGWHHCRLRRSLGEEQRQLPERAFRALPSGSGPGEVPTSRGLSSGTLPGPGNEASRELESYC
Text: (§1) Structures associated with the abbreviated lipidated groups designated in Table 4 are as follows: […]

diabetic mice [2] = assay: Blood glucose, food intake and body weight in diabetic mice; format: in vivo; conditions: for body weight: FIG. 17D; for blood glucose levels and duration of action: FIG. 15B
Description: Six- to eight-week-old male C57BL/6 mice were maintained at 23° C., constant humidity, and a 12-h light-dark cycle. The acute in vivo effects of select peptides were evaluated by subcutaneously injecting peptides solubilized in physiologically buffered saline or a vehicle control to normal or diabetic mice. Blood glucose was measured at various time points through the course of a 24 hr period following administration of the peptides. Each group of mice contained 8 animals per group. The average body weight was ˜25 g. Mice were made diabetic by administration of streptozotocin.
Repeat daily subcutaneous administration of the peptides or vehicle control was administered to the mice for periods of five days to two weeks. The obese mice were given a diabetogenic diet Mice had free access to water and were fed ad libitum with a high fat diet (HFD) comprising 58% of calories from fat (D12331; Research Diets, New Brunswick, N.J.) and each group of mice contained 8 animals per group. The average body weight was ˜50 g and the mice were ˜6 months old males. Body weight and food intake were measured on the days that peptide or vehicle control was administered to the mice. Fasting blood glucose levels were measured repeatedly.

GLP-1 receptor = target: T2, GLP-1 receptor (Homo sapiens, UniProt P43220); assay: cAMP synthesis luciferase reporter assay in HEK293 cells, GLP-1 receptor; format: cell-based; conditions: for EC50: read-out: Normalized GLP-1 EC50 (nM) MEAN, Table 4
T2 construct: expressed in transfected cells; host or cells: HEK293
Text: as §1

insulin receptor (IR-B) = target: T3, insulin receptor (IR-B) (Homo sapiens, UniProt P06213); assay: In vitro activity at insulin B receptor (IR-B); format: cell-based; conditions: Table 4; read-out: Normalized IR-B EC50 (nM) MEAN
T3 construct: expressed in transfected cells
Description: Color development was stopped 5 min later by adding 0.05 ml 1 N HCl. Absorbance at 450 nm was measured on Titertek Multiscan MCC340 (ThermoFisher, Pittsburgh, Pa.). […] Structures associated with the abbreviated lipidated groups designated in Table 4 are as follows: […]

GIP receptor [3] = target: T1, GIP receptor; conditions: general statement; cited from earlier work
[4] = particularly at physiological pH; cited from earlier work
diabetic mice [5] = assay: Blood glucose, food intake and body weight in diabetic mice; format: in vivo; conditions: four days; for weight loss: daily or twice a day, FIG. 14B

T2 sequence (P43220 24-463, species assumed): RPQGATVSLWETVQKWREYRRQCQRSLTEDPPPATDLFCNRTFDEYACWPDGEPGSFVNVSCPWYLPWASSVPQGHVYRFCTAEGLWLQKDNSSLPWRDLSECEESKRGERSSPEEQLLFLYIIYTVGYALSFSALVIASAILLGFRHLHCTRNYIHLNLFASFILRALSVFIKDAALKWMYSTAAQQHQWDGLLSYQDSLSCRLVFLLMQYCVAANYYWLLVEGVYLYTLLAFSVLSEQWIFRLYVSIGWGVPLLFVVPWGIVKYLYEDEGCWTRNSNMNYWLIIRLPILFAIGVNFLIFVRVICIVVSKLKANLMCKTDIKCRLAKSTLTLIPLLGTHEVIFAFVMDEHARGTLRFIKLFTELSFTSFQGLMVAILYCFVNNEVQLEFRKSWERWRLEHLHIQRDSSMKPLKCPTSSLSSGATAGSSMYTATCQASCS

CC(C)=C(N)C(=O)N1CCC[C@H]1C(=O)N[C@@H](Cc1c[nH]cn1)C(=O)N[C@@H](CO)C(=O)N[C@@H](CCCNC(=N)N)C(=O)NCC(=O)N[C@H](C(=O)N[C@@H](Cc1ccccc1)C(N)=O)[C@@H](C)O
t1/2 (physchem; buffer): No cleavage

SPHSRGTF-NH2 [Table 3 no. 7: S, P, H-SRGTF-NH2]
t1/2 (physchem; buffer): No cleavage

CIU-146: YXEGTFTSDU2SIYLDKQAAXEFVNWLLAGGPSSGAPPPS (SEQ ID NO: 2014); C(S-S)—CH2CH2CH2-B^1Desdi (Y[Aib]EGTFTSDKSIYLDKQAA[Aib]EFVNWLLAGGPSSGAPPPS; not fully specified (residue 10, C-terminus); also: disulfide-linked propyl to B1 of desdi insulin, site not given here)
EC50 (GIP receptor [1]): 0.0014 nM

CNC(C)(C)C(=O)N1CCC[C@H]1C(=O)N[C@@H](Cc1c[nH]cn1)C(=O)N[C@@H](CO)C(=O)N[C@@H](CCCNC(=N)N)C(=O)NCC(=O)N[C@H](C(=O)N[C@@H](Cc1ccccc1)C(N)=O)[C@@H](C)O [Table 3 no. 19: N—Me-Aib, P, H-SRGTF-NH2]
half-life (physchem; buffer): > 20.8 days

CIU-037: HXEGTFTSDVSSYLEEQAAREFIAWLVRGGPSSGAPPPSK(20K PEG) (SEQ ID NO: 1966); C(S-S)—CH2CH2CH2-B^1 Insulin
blood glucose levels (diabetic mice [2]; 1, 2.5 or 5 nmol/kg, seven days, FIG. 17B): improved blood glucose levels achieved relative to pegylated insulin
blood glucose levels (diabetic mice [2]; 5, 10 or 20 nmol/kg, FIG. 16B): blood glucose levels inversely proportional to the dose administered
fat mass and lean mass (diabetic mice [2]; FIG. 17E): comes from fat mass and not lean mass
food intake (diabetic mice [2]; seven days, FIG. 17C): suppress food intake
body weight (diabetic mice [2]; seven days): induces loss in body weight

CIU-012: HXEGTFTSDUSSYLEEQAAKEFIAWLVKGGPSSGAPPPSG (SEQ ID NO: 1953); C(S-S)—CH2CH2CH2-B^1 Insulin
blood glucose levels and duration of action (diabetic mice [2]): demonstrate activity in reducing blood glucose levels and demonstrate an extended duration of action relative to native insulin

SEQ ID NO: 128: glucagon analog substituting the native glutamine at position 3 with glutamic acid
selectivity for the GLP-1 receptor (GLP-1 receptor; versus glucagon receptor): tenfold

C[C@@H](O)[C@H](NC(=O)CNC(=O)[C@H](CCCNC(=N)N)NC(=O)[C@H](CO)NC(=O)[C@H](Cc1c[nH]cn1)NC(=O)[C@@H]1CCCN1C(=O)[C@@H]1CCCN1)C(=O)N[C@@H](Cc1ccccc1)C(N)=O [Table 3 no. 8: P, P, H-SRGTF-NH2]
t1/2 (physchem; buffer): No cleavage

CIU-004: XEGTFTSDVSSYLEEQAAKEFIAWLVKGGPSSGAPPPS (SEQ ID NO: 1945); C(S-S)—CH2CH2CH2-B^1 Insulin (conjugate chemistry not built)
EC50 (GLP-1 receptor): 7.96 nM
EC50 (insulin receptor (IR-B)): 0.59 nM

EPHSRGTF-NH2 [Table 3 no. 10: E, P, H-SRGTF-NH2]
t1/2 (physchem; buffer): No cleavage

KPHSRGTF-NH2 [Table 3 no. 9: K, P, H-SRGTF-NH2]
t1/2 (physchem; Table 3, words or unit not given, PBS): No cleavage

APHSRGTF-NH2 [Table 3 no. 5: A, P, H-SRGTF-NH2]
t1/2 (physchem; buffer): No cleavage

C[C@@H](O)[C@H](NC(=O)CNC(=O)[C@H](CCCNC(=N)N)NC(=O)[C@H](CO)NC(=O)[C@H](Cc1c[nH]cn1)NC(=O)[C@@H]1CCCN1C(=O)CO)C(=O)N[C@@H](Cc1ccccc1)C(N)=O
t1/2 (physchem; buffer): No cleavage

CIU-021: HXEGTFTSDUSSYLEEQAAKEFIAWLVKGGPSSGAPPPSG (SEQ ID NO: 1958); Pen(S-S)—CH2CH2CH2-B^1 Insulin
blood glucose levels and duration of action (diabetic mice [2]): demonstrate activity in reducing blood glucose levels and demonstrate an extended duration of action relative to native insulin

Native glucagon: peptide consisting of the sequence of SEQ ID NO: 701
activation of the GIP receptor (GIP receptor [3]): does not activate the GIP receptor
solubility in aqueous solution [4]: poor solubility in aqueous solution

FPHSRGTF-NH2 [Table 3 no. 1: F, P, H-SRGTF-NH2]
t1/2 (physchem; buffer): No cleavage

CPHSRGTF-NH2 [Table 3 no. 6: C, P, H-SRGTF-NH2]
t1/2 (physchem; buffer): No cleavage

C[C@@H](O)[C@H](NC(=O)CNC(=O)[C@H](CCCNC(=N)N)NC(=O)[C@H](CO)NC(=O)[C@H](Cc1c[nH]cn1)NC(=O)[C@@H](N)Cc1ccc(NC(=O)CNC(=O)CN)cc1)C(=O)N[C@@H](Cc1ccccc1)C(N)=O
t1/2 (physchem; Table 2, result in words, PBS): No cleavage

CIU-013: HXEGTFTSDVSSYLEEQAAKEFIAWLVKGGPSSGAPPPSGU (SEQ ID NO: 1954); C(S-S)—CH2CH2CH2-B^1 Insulin
lowering blood glucose (diabetic mice [2]; 5, 15 or 20 nmoles/kg, FIG. 11B): all doses of the compound are effective in lowering blood glucose
food intake (diabetic mice [2]; FIG. 13): suppressing food intake
blood glucose levels and duration of action (diabetic mice [2]): demonstrate activity in reducing blood glucose levels and demonstrate an extended duration of action relative to native insulin
blood glucose (diabetic mice [2]; daily or 2× a day, one fifth the dosage of the pegylated insulin, FIG. 14D): would appear to not be as effective as insulin
24 hour blood glucose (diabetic mice [2]; second administration at 6 hours, 10 nmole/kg(×2), FIG. 12B): about 100 mg/dL
food intake (diabetic mice [5]; FIG. 14C): suppresses food intake relative to the administration of the pegylated insulin analog
weight loss (diabetic mice [5]): produced significant weight loss

C[C@@H](O)[C@H](NC(=O)CNC(=O)[C@H](CCCNC(=N)N)NC(=O)[C@H](CO)NC(=O)[C@H](Cc1c[nH]cn1)NC(=O)[C@@H]1CCCN1C(=O)[C@H]1CCCN1)C(=O)N[C@@H](Cc1ccccc1)C(N)=O [Table 3 no. 13: d-P, P, H-SRGTF-NH2]
t1/2 (physchem; buffer): No cleavage

C[C@@H](O)[C@H](NC(=O)CNC(=O)[C@H](CCCNC(=N)N)NC(=O)[C@H](CO)NC(=O)[C@H](Cc1c[nH]cn1)NC(=O)[C@@H]1CCCN1C(=O)[C@@H](O)Cc1ccccc1)C(=O)N[C@@H](Cc1ccccc1)C(N)=O
t1/2 (physchem; buffer): No cleavage

CIU-055: HXEGTFTSDVSSYLEEQAAREFIAWLVRGGPSSGAPPPSK(20K PEG) (SEQ ID NO: 1974); C(S-S)—CH2CH2CH2-B^1 DesDi
EC50 (insulin receptor (IR-B)): 1140 nM

C[C@@H](O)[C@H](NC(=O)CNC(=O)[C@H](CCCNC(=N)N)NC(=O)[C@H](CO)NC(=O)[C@H](Cc1c[nH]cn1)NC(=O)[C@@H](N)Cc1ccc(NC(=O)CNC(=O)CO)cc1)C(=O)N[C@@H](Cc1ccccc1)C(N)=O
t1/2 (physchem; Table 2, result in words, PBS): No cleavage

CIU-26: pegylated native insulin (20 K PEG linked to the B29 side chain) [reference compound]
food intake (diabetic mice [2]; FIG. 13): does not
food intake (diabetic mice [2]; FIG. 16C): did not
food intake (diabetic mice [2]; seven days, FIG. 17C): does not
body weight (diabetic mice [2]; seven days): not
weight loss (diabetic mice [5]): failed to induce weight loss

GPHSRGTF-NH2 [Table 3 no. 3: G, P, H-SRGTF-NH2]
t1/2 (physchem; buffer): No cleavage

C[C@@H](O)[C@H](NC(=O)CNC(=O)[C@H](CCCNC(=N)N)NC(=O)[C@H](CO)NC(=O)[C@H](Cc1c[nH]cn1)NC(=O)[C@H]1CCCN1C(=O)[C@@H]1CCCN1)C(=O)N[C@@H](Cc1ccccc1)C(N)=O [Table 3 no. 12: P, d-P, H-SRGTF-NH2]
t1/2 (physchem; buffer): No cleavage

CIU-123: HXEGTFTSDUSIYLDKQAAXEFVNWLLAGGPSSGAPPPS (SEQ ID NO: 2013); C(S-S)—CH2CH2CH2-B^1Desdi (H[Aib]EGTFTSDK([γGlu-Palmitoyl])SIYLDKQAA[Aib]EFVNWLLAGGPSSGAPPPS; also: disulfide-linked propyl to B1 of desdi insulin, site not given here)
EC50 (GIP receptor [1]): 0.0036 nM
EC50 (GLP-1 receptor): 0.0032 nM
